In the supplement of paper PMC10307832:

Experiments:
Test in all cases: relative viability (nuclei count vs DMSO), 5 days (fraction); higher = more cells survive
AT9283 + Linsitinib = compound: O=C(Nc1c[nH]nc1-c1nc2ccc(CN3CCOCC3)cc2[nH]1)NC1CC1 [AT9283] + C[C@]1(O)C[C@@H](c2nc(-c3ccc4ccc(-c5ccccc5)nc4c3)c3c(N)nccn32)C1 [Linsitinib] (partner 1 µM)
Outline: (§1)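 Relative viability was taken as the ratio of nuclei in treated wells to nuclei in vehicle wells. Lung cancer cell lines in 1536-well plates received compounds by pin tool one day after seeding, either one drug alone or a fixed anchor-drug dose plus five library-drug doses (not always all listed) in √10 steps. Nuclei were counted on 4× images after 5 days of treatment, and values are medians of duplicate plates.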

Erlotinib + Linsitinib = compound: C#Cc1cccc(Nc2ncnc3cc(OCCOC)c(OCCOC)cc23)c1 [Erlotinib] + C[C@]1(O)C[C@@H](c2nc(-c3ccc4ccc(-c5ccccc5)nc4c3)c3c(N)nccn32)C1 [Linsitinib] (partner 1 µM)
Outline: as §1

AT9283 + Trametinib = compound: O=C(Nc1c[nH]nc1-c1nc2ccc(CN3CCOCC3)cc2[nH]1)NC1CC1 [AT9283] + CC(=O)Nc1cccc(-n2c(=O)n(C3CC3)c(=O)c3c(Nc4ccc(I)cc4F)n(C)c(=O)c(C)c32)c1 [Trametinib] (partner 0.02 µM)
Outline: as §1

Erlotinib + Phenformin = compound: C#Cc1cccc(Nc2ncnc3cc(OCCOC)c(OCCOC)cc23)c1 [Erlotinib] + N=C(N)NC(=N)NCCc1ccccc1 [Phenformin] (partner 250 µM)
Outline: as §1

AT9283 + Olaparib = compound: O=C(Nc1c[nH]nc1-c1nc2ccc(CN3CCOCC3)cc2[nH]1)NC1CC1 [AT9283] + O=C(c1cc(Cc2n[nH]c(=O)c3ccccc23)ccc1F)N1CCN(C(=O)C2CC2)CC1 [Olaparib] (partner 8 µM)
Outline: as §1

Row | Cell Line | relative viability (AT9283 + Linsitinib; first compound 0.003 µM) | relative viability (AT9283 + Linsitinib; first compound 0.03 µM) | relative viability (AT9283 + Linsitinib; first compound 0.09487 µM) | relative viability (AT9283 + Linsitinib; first compound 0.3 µM) | relative viability (Erlotinib + Linsitinib; first compound 0.02 µM) | relative viability (Erlotinib + Linsitinib; first compound 0.2 µM) | relative viability (Erlotinib + Linsitinib; first compound 0.6325 µM) | relative viability (Erlotinib + Linsitinib; first compound 2 µM) | relative viability (AT9283 + Trametinib; first compound 0.003 µM) | relative viability (AT9283 + Trametinib; first compound 0.03 µM) | relative viability (AT9283 + Trametinib; first compound 0.09487 µM) | relative viability (AT9283 + Trametinib; first compound 0.3 µM) | relative viability (Erlotinib + Phenformin; first compound 0.02 µM) | relative viability (Erlotinib + Phenformin; first compound 0.2 µM) | relative viability (Erlotinib + Phenformin; first compound 0.6325 µM) | relative viability (Erlotinib + Phenformin; first compound 2 µM) | relative viability (AT9283 + Olaparib; first compound 0.003 µM) | relative viability (AT9283 + Olaparib; first compound 0.03 µM) | relative viability (AT9283 + Olaparib; first compound 0.09487 µM) | relative viability (AT9283 + Olaparib; first compound 0.3 µM)
1 | LCLC-103H | 0.952 | 1.04 | 1.07 | 0.419 | 1.1 | 1.21 | 1.15 | 1.01 | 0.661 | 0.716 | 0.441 | 0.4 | 0.335 | 0.347 | 0.356 | 0.289 | 0.77 | 0.784 | 0.467 | 0.37
2 | LK-2 | 0.341 | 0.351 | 0.129 | 0.127 | 0.557 | 0.43 | 0.869 | 0.377 | 0.746 | 0.759 | 0.195 | 0.194 | 0.623 | 0.275 | 0.513 | 0.39 | 0.742 | 0.312 | 0.113 | 0.103
3 | LOU-NH91 | 0.903 | 0.968 | 0.604 | 0.464 | 0.592 | 0.544 | 0.487 |  | 0.801 | 0.788 | 0.536 | 0.493 | 0.449 | 0.481 | 0.44 | 0.473 | 0.915 | 0.774 | 0.512 | 0.441
4 | NCI-H522 |  |  |  |  |  |  |  |  | 0.736 | 0.811 | 0.599 | 0.415 | 0.602 | 0.615 | 0.691 | 0.612 | 0.619 | 0.553 | 0.453 | 0.575
5 | NCI-H1299 | 0.888 | 0.705 | 0.402 | 0.256 | 1.07 | 0.968 | 1.04 | 0.956 |  |  |  |  |  |  |  |  | 0.911 | 0.657 | 0.366 | 0.316
6 | NCI-H1563 | 1.26 | 0.892 | 0.832 | 0.757 | 1.2 | 1.23 | 1.2 | 1.15 |  |  |  |  | 0.63 | 0.602 | 0.708 | 0.6 |  |  |  | 
7 | NCI-H1623 |  |  |  |  |  |  |  |  |  |  |  |  | 0.559 | 0.528 | 0.227 | 0.264 |  |  |  | 
8 | NCI-H1648 |  |  |  |  |  |  |  |  | 0.404 | 0.563 | 0.333 | 0.336 |  |  |  |  | 0.636 | 0.584 | 0.254 | 0.461
9 | NCI-H1650 |  |  |  |  |  |  |  |  | 0.604 | 0.545 | 0.399 | 0.179 | 0.4 | 0.263 | 0.411 | 0.274 | 0.759 | 0.808 | 0.693 | 0.48
10 | NCI-H1703 | 0.985 | 0.284 | 0.258 | 0.223 | 0.749 | 0.818 | 1.08 | 0.924 |  |  |  |  |  |  |  |  | 0.383 | 0.155 | 0.169 | 0.229
11 | NCI-H2170 |  |  |  |  |  |  |  |  | 0.958 | 0.747 | 0.268 | 0.159 | 0.422 | 0.463 | 0.386 | 0.324 | 0.613 | 0.385 | 0.14 | 0.146
12 | NCI-H2342 |  |  |  |  |  |  |  |  | 0.841 | 0.808 | 0.707 | 0.442 | 0.532 | 0.671 | 0.572 | 0.433 | 0.476 | 0.434 | 0.384 | 0.292
13 | SW 900 |  |  |  |  |  |  |  |  | 0.66 | 0.607 | 0.345 | 0.27 | 0.55 | 0.565 | 0.679 | 0.487 | 0.882 | 0.783 | 0.507 | 0.312
